Among the data in patent US12383533B2 (Frost Biologic, Inc., priority 2014, dated 2025) are percent inhibition of cell viability values, retold here.

What all share (type): cell-based
Experiment [1] has as its system PC3 cells. The experiment is described as follows: Cell Viability Assay (ATPlite 1step), PC3. The note with it: Homo sapiens, PC-3, 72 hours; for percent inhibition of cell viability at 4 µM: PC3, 4 uM compound, read-out: Cell Viability % inhibition PC3 (4 uM Cpd); for percent inhibition of cell viability at 20 µM: PC3, 20 uM compound, read-out: Cell Viability % inhibition PC3 (20 uM Cpd). The protocol: (§1) Cell Viability Assay Protocol
(§2) Cells were trypsinized, counted, and re-seeded into a 384-well tissue culture plate at 1000 cells per well in […] media. Cells were incubated at 37° C. in an atmosphere of 5% CO2 for 24 hours. Experimental compounds, initially dissolved in DMSO and diluted further in media were added to the wells and incubated for 72 hours. Cell viability was measured using the ATPlite 1step Luminescence Detection Assay system (Perkin Elmer) as described in the Assay kit instructions.
(§3) Cell Culture Lines and Media: (1) A2780 cells were cultured in RPMI media with 10% FBS and 1% antibiotics. Cells were typically split every 3-5 days at a 1:10 dilution; (2) PC3 cells were cultured in RPMI media with 10% FBS and 1% antibiotics. Cells were typically split every 3-5 days at a 1:4 dilution; (3) MCF-7 cells were grown in K-12F media with 10% FBS and 1% antibiotics. Cells were typically split every 3-5 days at a 1:10 dilution.

In experiment [2] the test system is MCF-7 cells. In words: Cell Viability Assay (ATPlite 1step), MCF-7. The note with it: Homo sapiens, MCF7, 72 hours; for percent inhibition of cell viability at 4 µM: MCF-7, 4 uM compound, read-out: Cell Viability % inhibition MCF-7 (4 uM Cpd); for percent inhibition of cell viability at 20 µM: MCF-7, 20 uM compound, read-out: Cell Viability % inhibition MCF-7 (20 uM Cpd). The protocol: as §1, §2, §3

The subject of experiment [3] is A2780 cells. The experiment is described as follows: Cell Viability Assay (ATPlite 1step), A2780. The note with it: Homo sapiens, 72 hours; for percent inhibition of cell viability at 4 µM: A2780, 4 uM compound, read-out: Cell Viability % inhibition A2780 (4 uM Cpd); for percent inhibition of cell viability at 20 µM: A2780, 20 uM compound, read-out: Cell Viability % inhibition A2780 (20 uM Cpd). The protocol:
as §1, §2, §3

The structures appear in SMILES notation.

For the molecule `O=C(Nc1ccc(-c2ccncc2)cn1)c1cncnc1` [Compound 13, N-(3,4′-bipyridin-6-yl)pyrimidine-5-carboxamide], the percent inhibition of cell viability at 4 µM in experiment [1] was 19.2%; in experiment [2] it was 4.5%; in experiment [3], 9.3%. Also, the percent inhibition of cell viability at 20 µM in experiment [1] stood at 17.5%; in experiment [2], 0.2%; in experiment [3], 47.2%.

As to `O=C(Nc1ccc(-c2cccnc2)cn1)c1cncnc1` [Compound 14, N-(3,3′-bipyridin-6-yl)pyrimidine-5-carboxamide], the values for the percent inhibition of cell viability at 4 µM in experiment [1], in experiment [2] and in experiment [3] were 23.9%, 19.1% and 51.2%, respectively. For the same molecule, the values for the percent inhibition of cell viability at 20 µM in experiment [1], in experiment [2] and in experiment [3] were 43.3%, 30.3% and 71.4%, respectively.

For the molecule `O=C(Nc1ccc(-c2ccccn2)cn1)c1cncnc1` [Compound 15, N-(3,2′-bipyridin-6-yl)pyrimidine-5-carboxamide], the results for the percent inhibition of cell viability at 4 µM in experiment [1], in experiment [2] and in experiment [3] were 40.8%, 34.5% and 68.8%, respectively. The percent inhibition of cell viability at 20 µM in experiment [1] came out at 48.2%; in experiment [2] it was 25.6%; in experiment [3], 73.4%.

Turning to `CNC(=O)c1cccc(-c2ccc(NC(=O)c3cncnc3)nc2)c1` [Compound 17, N-{5-[3-(methylcarbamoyl)phenyl]pyridin-2-yl}pyrimidine-5-carboxamide], the percent inhibition of cell viability at 4 µM in experiment [1] turned out to be 62.8%; in experiment [2], 56.3%; in experiment [3], 84.5%. Besides, the percent inhibition of cell viability at 20 µM in experiment [1] turned out to be 81.7%; in experiment [2], 75.5%; in experiment [3], 91.7%.

As to `COc1cccc(-c2ccc(NC(=O)c3cncnc3)nc2)c1` [Compound 18, N-[5-(3-methoxyphenyl)pyridin-2-yl]pyrimidine-5-carboxamide], the values for the percent inhibition of cell viability at 4 µM in experiment [1], in experiment [2] and in experiment [3] were 66.2%, 58.8% and 88.5%, respectively. Moreover, the percent inhibition of cell viability at 20 µM in experiment [1] was determined as 76.5%; in experiment [2], 75.4%; in experiment [3], 91.5%.

As for `O=C(Nc1ccc(-c2ccoc2)cn1)c1cncnc1` [Compound 19, N-[5-(furan-3-yl)pyridin-2-yl]pyrimidine-5-carboxamide], the values for the percent inhibition of cell viability at 4 µM in experiment [1], in experiment [2] and in experiment [3] were 62.2%, 56.4% and 83.2%, respectively. The percent inhibition of cell viability at 20 µM in experiment [1] is 75.2%; in experiment [2], 69.6%; in experiment [3], 91.8%.

Turning to `O=C(Nc1ccc(-c2ccco2)cn1)c1cncnc1` [Compound 20, N-[5-(furan-2-yl)pyridin-2-yl]pyrimidine-5-carboxamide], the percent inhibition of cell viability at 4 µM worked out at 59.9% in experiment [1], 56.3% in experiment [2] and 84% in experiment [3]. The percent inhibition of cell viability at 20 µM in experiment [1] came to 69.4%; in experiment [2], 61.2%; in experiment [3], 91.1%.

In the case of `Cc1ncc(C(=O)Nc2ccc(-c3cc(Cl)cc(N4CCN(C)CC4)c3)cn2)cn1` [Compound 47, N-{5-[3-chloro-5-(4-methylpiperazin-1-yl)phenyl]pyridin-2-yl}-2-methylpyrimidine-5-carboxamide], the percent inhibition of cell viability at 4 µM is 63.2% in experiment [1], 40.6% in experiment [2] and 88.7% in experiment [3]. Further, the percent inhibition of cell viability at 20 µM in experiment [1] was found to be 78.6%; in experiment [2], 64.6%; in experiment [3] it was 95.5%.

`Cc1ncc(C(=O)Nc2ccc(-c3cc(Cl)cc(N4CCN(C)CC4)c3)c(C)n2)cn1` [Compound 48, N-{5-[3-chloro-5-(4-methylpiperazin-1-yl)phenyl]-6-methylpyridin-2-yl}-2-methylpyrimidine-5-carboxamide]: the percent inhibition of cell viability at 4 µM is 72% in experiment [1], 36.5% in experiment [2] and 79.2% in experiment [3]. The percent inhibition of cell viability at 20 µM came out at 67% in experiment [1], 47.8% in experiment [2] and 88.8% in experiment [3].

Consider `Cc1ncc(C(=O)Nc2ccc(-c3cc(N4CCN(C)CC4)cc(S(=O)(=O)C4CC4)c3)cn2)cn1` [Compound 49, N-{5-[3-cyclopropylsulfonyl-5-(4-methylpiperazin-1-yl)phenyl]pyridin-2-yl}-2-methylpyrimidine-5-carboxamide], for which the percent inhibition of cell viability at 4 µM in experiment [1] came out at 19.4%; in experiment [2], 28.1%; in experiment [3] it was 16.9%. For the same molecule, the percent inhibition of cell viability at 20 µM in experiment [1] was 39.7%; in experiment [2], 48.3%; in experiment [3], 59.5%.

Regarding `Cc1ncc(C(=O)Nc2ccc(-c3cc(N4CCN(C)CC4)cc(S(=O)(=O)C4CC4)c3)c(C)n2)cn1` [Compound 50, N-{5-[3-cyclopropylsulfonyl-5-(4-methylpiperazin-1-yl)phenyl]-6-methylpyridin-2-yl}-2-methylpyrimidine-5-carboxamide], the figures for the percent inhibition of cell viability at 4 µM in experiment [1], in experiment [2] and in experiment [3] were 39.2%, 10% and 7.3%, respectively. Besides, the values for the percent inhibition of cell viability at 20 µM in experiment [1], in experiment [2] and in experiment [3] were 54.7%, 40.7% and 62.6%, respectively.

As for `Cc1ncc(C(=O)Nc2ccc(-c3cc(NC4CC4)cc(N4CCN(C)CC4)c3)cn2)cn1` [Compound 51, N-{5-[3-cycopropylamino-5-(4-methylpiperazin-1-yl)phenyl]pyridin-2-yl}-2-methylpyrimidine-5-carboxamide], the percent inhibition of cell viability at 4 µM in experiment [1] was found to be 17.3%; in experiment [2] it was 22.9%; in experiment [3] it was 6.8%. In addition, the percent inhibition of cell viability at 20 µM in experiment [1] stood at 65.7%; in experiment [2], 49.5%; in experiment [3], 76%.

Take `Cc1ncc(C(=O)Nc2ccc(-c3cc(NC4CC4)cc(N4CCN(C)CC4)c3)c(C)n2)cn1` [Compound 52, N-{5-[3-cyclopropylamino-5-(4-methylpiperazin-1-yl)phenyl]-6-methylpyridin-2-yl}-2-methylpyrimidine-5-carboxamide]: the percent inhibition of cell viability at 4 µM in experiment [1] is 35%; in experiment [2] it was -1.6%; in experiment [3], 8%. The percent inhibition of cell viability at 20 µM in experiment [1] came out at 52.5%; in experiment [2], 22.2%; in experiment [3] it was 69.5%.

Turning to `Cc1ncc(C(=O)Nc2ccc(-c3cc(C4CC4)cc(N4CCN(C)CC4)c3)cn2)cn1` [Compound 53], the percent inhibition of cell viability at 4 µM in experiment [1] was determined as 12.3%; in experiment [2], 11.3%; in experiment [3] it was 15.1%. For the same molecule, the percent inhibition of cell viability at 20 µM in experiment [1] was found to be 67.1%; in experiment [2], 39.6%; in experiment [3], 74.8%.

Turning to `Cc1ncc(C(=O)Nc2ncc(-c3cc(Cl)cc(N4CCNCC4)c3)cc2F)cn1` [Compound 54, N-{5-[3-chloro-5-(piperazin-1-yl)phenyl]-3-Fluoropyridin-2-yl}-2-methylpyrimidine-5-carboxamide], the percent inhibition of cell viability at 4 µM in experiment [1] is 0.2%; in experiment [2] it was 23.8%; in experiment [3], -6.4%. For the same molecule, the percent inhibition of cell viability at 20 µM was found to be 34.8% in experiment [1], 42.6% in experiment [2] and 64.6% in experiment [3].

In the case of `Cc1ncc(C(=O)Nc2ccc(-c3csc(C)c3)cn2)cn1` [Compound 62, 2-methyl-N-[5-(5-methylthiophen-3-yl)pyridin-2-yl]pyrimidine-5-carboxamide], the percent inhibition of cell viability at 4 µM came to 54.8% in experiment [1], 59.4% in experiment [2] and 85.2% in experiment [3]. Further, the figures for the percent inhibition of cell viability at 20 µM in experiment [1], in experiment [2] and in experiment [3] were 65.1%, 67% and 89.9%, respectively.
